Tests used:
Format in all cases: cell-based
5637 = experiment: Cytotoxicity MTS, solid tumors, Bladder 5637; conditions: 4-Parameter Curve Fit, NA = not active
MX-1 = experiment: Cytotoxicity MTS, solid tumors, Breast MX-1; conditions: 4-Parameter Curve Fit, NA = not active
OSA-FH = experiment: Cytotoxicity MTS, solid tumors, Osteosarcoma OSA-FH; conditions: 4-Parameter Curve Fit, NA = not active
FADU = experiment: Cytotoxicity MTS, solid tumors, Pharynx FADU; conditions: 4-Parameter Curve Fit, NA = not active
786-O = experiment: Cytotoxicity MTS, solid tumors, Renal 786-O; conditions: 4-Parameter Curve Fit, NA = not active
Molt 3 = experiment: Cytotoxicity MTS, leukemias/lymphomas, Molt 3; conditions: 4-Parameter Curve Fit, NA = not active, read-out: Cytotoxicity IC50 ALL (Acute lymphobalstic) Molt 3
Hut 78 = experiment: Cytotoxicity MTS, leukemias/lymphomas, Hut 78; conditions: 4-Parameter Curve Fit, NA = not active, read-out: Cytotoxicity IC50 Lymphoma (Cutaneous T cell) Hut 78
HT-29 = experiment: Cytotoxicity MTS, solid tumors, Colon HT-29; conditions: 4-Parameter Curve Fit, NA = not active
A549 = experiment: Cytotoxicity MTS, solid tumors, NSCL A549; conditions: 4-Parameter Curve Fit, NA = not active
PANC-1 = experiment: Cytotoxicity MTS, solid tumors, Pancreas PANC-1; conditions: 4-Parameter Curve Fit, NA = not active
PC-3 = experiment: Cytotoxicity MTS, solid tumors, Prostate PC-3; conditions: 4-Parameter Curve Fit, NA = not active
DU-145 = experiment: Cytotoxicity MTS, solid tumors, Prostate DU-145; conditions: 4-Parameter Curve Fit, NA = not active
LNCAP = experiment: Cytotoxicity MTS, solid tumors, Prostate LNCAP; conditions: 4-Parameter Curve Fit, NA = not active
NCI-H187 = experiment: Cytotoxicity MTS, solid tumors, SCL NCI-H187; conditions: 4-Parameter Curve Fit, NA = not active
SW 694 = experiment: Cytotoxicity MTS, solid tumors, Fibrosarcoma SW 694; conditions: 4-Parameter Curve Fit, NA = not active
CHSA = experiment: Cytotoxicity MTS, solid tumors, Chondrosarcoma CHSA; conditions: 4-Parameter Curve Fit, NA = not active
MC116 = experiment: Cytotoxicity MTS, leukemias/lymphomas, MC116; conditions: 4-Parameter Curve Fit, NA = not active, read-out: Cytotoxicity IC50 Lymphoma (undifferentiated) MC116
H9 = experiment: Cytotoxicity MTS, leukemias/lymphomas, H9; conditions: 4-Parameter Curve Fit, NA = not active, read-out: Cytotoxicity IC50 Lymphoma (T cell) H9
RAMOS = experiment: Cytotoxicity MTS, leukemias/lymphomas, RAMOS; conditions: 4-Parameter Curve Fit, NA = not active, read-out: Cytotoxicity IC50 Lymphoma (Burkitts B cell) RAMOS
HL-60 = experiment: Cytotoxicity MTS, leukemias/lymphomas, HL-60; conditions: read-out: Cytotoxicity IC50 AML (acute promyelocytic leukemia) HL-60, 4-Parameter Curve Fit, NA = not active, read-out: Cytotoxicity IC50 ALL (Promyelocytic leukemia) HL-60
Y-79 = experiment: Cytotoxicity MTS, solid tumors, Retinoblastoma Y-79; conditions: 4-Parameter Curve Fit, NA = not active
Mel-28 = experiment: Cytotoxicity MTS, solid tumors, Melanoma Mel-28; conditions: 4-Parameter Curve Fit, NA = not active
Hs746t = experiment: Cytotoxicity MTS, solid tumors, Gastric Hs746t; conditions: 4-Parameter Curve Fit, NA = not active
SK-HEP-1 = experiment: Cytotoxicity MTS, solid tumors, Liver SK-HEP-1; conditions: 4-Parameter Curve Fit, NA = not active
SK-OV-3 = experiment: Cytotoxicity MTS, solid tumors, Ovary SK-OV-3; conditions: 4-Parameter Curve Fit, NA = not active

## CCCCCCCCCCCCCCCCC(=O)[C@H](C)N [drawing 119]
5637
  IC50: 29.9 µM
MX-1
  IC50: 14.9 µM
OSA-FH
  IC50: 14.9 µM

## CCCCCCCCCCCCCCCC(=O)[C@@H](N)CC [drawing 121]
5637
  IC50: 1.58 µM
MX-1
  IC50: 1.72 µM
FADU
  IC50: 2.99 µM
786-O
  IC50: 59.8 µM

## CCCCCCCCCCCCCCCC(O)C(N)CC (centres unmarked) [drawing 127]
Molt 3
  IC50: 0.0376 µM
Hut 78
  IC50: 9.15 µM

## CCCCCCCCCCCCCCCCC[C@@H](O)[C@H](C)N [drawing 114]
5637
  IC50: 6.34 µM
HT-29
  IC50: 9.07 µM
A549
  IC50: 9.79 µM
PANC-1
  IC50: 0.722 µM
FADU
  IC50: 0.0812 µM
PC-3
  IC50: 0.049 µM
DU-145
  IC50: 9.86 µM
LNCAP
  IC50: 7.69 µM
NCI-H187
  IC50: 7.17 µM
SW 694
  IC50: 10.4 µM
CHSA
  IC50: 1.58 µM
OSA-FH
  IC50: 8.6 µM

## CCCCCCCCCCCCCCCCCC(O)C(C)N (centres unmarked)
Molt 3
  IC50: 7.61 µM
MC116
  IC50: 10.9 µM

## CCCCCCCCCCCCCCC(O)C(C)N (centres unmarked) [drawing 128]
Molt 3
  IC50: 26.1 µM

## CCCCCCCCCCCCCCCCCC(=O)[C@H](C)N [drawing 131]
Molt 3
  IC50: 14.3 µM
H9
  IC50: 2.59 µM
RAMOS
  IC50: 1.65 µM

## CCCCCCCCCCCCCCC[C@@H](O)[C@@H](N)CF [drawing 133]
HL-60
  IC50: 1.29 µM

## CCCCCCCCCCCCCCCCCC(=O)[C@H](C)N [drawing 120]
A549
  IC50: 20.1 µM
FADU
  IC50: 14.3 µM

## CCCCCCCCCCCCCCC(O)C(C)N (centres unmarked) [drawing 126]
Molt 3
  IC50: 0.00983 µM
Hut 78
  IC50: 8.81 µM
MC116
  IC50: 9.58 µM

## CCCCCCCCCCCCCCCC(=O)[C@H](C)N [drawing 118]
MX-1
  IC50: 2.84 µM
786-O
  IC50: 0.162 µM
NCI-H187
  IC50: 3.55 µM
Y-79
  IC50: 12.1 µM

## CCCCCCCCCCCCCCC[C@@H](O)[C@@H](N)CC [drawing 116]
5637
  IC50: 7.8 µM
HT-29
  IC50: 9.11 µM
A549
  IC50: 10.3 µM
PANC-1
  IC50: 0.186 µM
FADU
  IC50: 0.225 µM
PC-3
  IC50: 10.2 µM
DU-145
  IC50: 0.0755 µM
LNCAP
  IC50: 6.35 µM
NCI-H187
  IC50: 7.29 µM
Y-79
  IC50: 9.51 µM
Mel-28
  IC50: 9.4 µM
SW 694
  IC50: 7.57 µM
CHSA
  IC50: 8.94 µM
OSA-FH
  IC50: 8.52 µM

## CCCCCCCCCCCCCCC[C@@H](O)[C@H](C)N [drawing 112]
MX-1
  IC50: 1.95 µM
HT-29
  IC50: 0.128 µM
Hs746t
  IC50: 0.395 µM
SK-HEP-1
  IC50: 0.297 µM
A549
  IC50: 0.0857 µM
SK-OV-3
  IC50: 0.702 µM
FADU
  IC50: 0.249 µM
786-O
  IC50: 0.138 µM
